“Also recorded” adds a separate entry of the source. Where no end group is shown, it is not given here. [ ]: non-standard residue; d: D form. dPhe(F5) = N[C@H](Cc1c(F)c(F)c(F)c(F)c1F)C(=O)O; dBpa = N[C@H](Cc1ccc(C(=O)c2ccccc2)cc1)C(=O)O; dCha = N[C@H](CC1CCCCC1)C(=O)O
What was measured:
calmodulin = calmodulin (Homo sapiens, UniProt P0DP23); conditions: cited from earlier work
NCI-H2444 = experiment: CDDP-enhancing activity of CBP501, cell cycle distribution by flow-cytometry; assay type: cell-based, Human; conditions: 1 h co-exposure with CDDP
Description: (§1) Cell culture and reagents. Human NSCLC cell lines were cultured in a variety of media, each supplemented with 10% fetal bovine serum (Invitrogen, San Diego, CA) at 37° C. with 5% CO2/air. The media used was RPMI1640 (Sigma-Aldrich, St. Louis, Mo.) for NCI-H1755, NCI-H2030, NCI-H1437, NCI-H2122, NCI-H2172, NCI-H2228, NCI-H1563, NCI-H1944, NCI-H1993, NCI-H1734, NCI-H1568, NCI-H2444, NCI-H2291, NCI-H2347, NCI-H1838, NCI-H1299, HCC827, NCI-H1975, NCI-H1155, NCI-H522 and NCI-H1703; RPMI1640 supplemented with 2mM L-glutamine (Invitrogen) for NCI-H727; RPMI1640 supplemented with 4.5 g/L D-glucose (Sigma-Aldrich), 10 mM HEPES (Sigma-Aldrich) and 1 mM sodium pyruvate (Sigma-Aldrich) for NCI-H358, NCI-H520, NCI-H23, NCI-H647 and NCI-H838; Ham's F12K (Sigma-Aldrich) for A549. CDDP was purchased from Sigma-Aldrich. Sulforaphane (SFN) was purchased from Sigma-Aldrich. All NSCLC cell lines were purchased from ATCC and STR analysis had been performed by ATCC to authenticate the identity of each cell line. All cell lines were used within three months after thawing.
(§2) Cell cycle analysis. Cells were plated in 24-well plates and incubated for 24 hours. The cells were treated with or without CDDP plus or minus CBP501 at the indicated concentration for the indicated times. The cells were harvested and stained with Krishan's solution (0.1% sodium citrate, 50 μg/ml propidium iodide, 20 μg/ml RNase A, 0.5% NP-40). Stained cells were analyzed by FACSCalibur (Becton Dickinson, Franklin Lakes, N.J.) using CELLQuest software (Becton Dickinson).
(§3) Here, the change in the cell cycle distribution, as indicated by flow-cytometry, was used to estimate the sensitivity of NSCLC cell lines to CBP501-enhanced cytotoxicity to CDDP. Such changes were monitored in cells treated with CDDP in the presence or absence of CBP501. The utility of this analysis for assessing the effectiveness of anti-cancer therapy is based on the absence of functioning G1/S checkpoint regulation in the cell cycle of many types of cancer cells (14). Lack of a functional G1/S checkpoint leads to an accumulation of cancer cells in G2/M phase upon their exposure to DNA-damaging anticancer agents (14, 15).
(§4) To assess the CDDP-enhancing activity of CBP501, one can examine either of two dose-response curves in which the X-axis indicates the dose of CDDP and Y-axis indicates either the number of cells in subG1 or in G2/M. The transition and peak in either dose-response curve will shift to the left in the presence of CBP501 for CBP501-sensitive cells, indicating the enhanced ability of CDDP to change the cell cycle distribution. […] Using this criterion based on CBP501's ability to shift the CDDP-induced subG1 or G2/M dose-response curve, twelve NSCLC cell lines were classified as being either, CBP501-sensitive or CBP501-insensitive. Cell lines that shifted the curve two fold or more were classified as CBP501 sensitive cells and those that shifted the curve less than two fold were classified as CBP501 insensitive (Table 1). Classification of CBP501 sensitivity in NSCLC cell lines.

NCI-H2172 = experiment: as above; assay type: cell-based, Human; conditions: 1 h co-exposure with CDDP, shift of subG1 or G2/M dose-response curve
Description: as §1, §2, §3, §4

NCI-H2291 = experiment: as above; assay type: cell-based, Human; conditions: 1 h co-exposure with CDDP
Description: as §1, §2, §3, §4

NCI-H1568 = experiment: as above; assay type: cell-based, Human; conditions: 1 h co-exposure with CDDP
Description: as §1, §2, §3, §4

NCI-H838 = experiment: as above; assay type: cell-based, Human; conditions: 1 h co-exposure with CDDP; for Folds increase of CDDP effect by CBP501: shift of subG1 or G2/M dose-response curve
Description: as §1, §2, §3, §4

NCI-H2030 = experiment: as above; assay type: cell-based, Human; conditions: 1 h co-exposure with CDDP, shift of subG1 or G2/M dose-response curve
Description: as §1, §2, §3, §4

NCI-H2347 = experiment: as above; assay type: cell-based, Human; conditions: 1 h co-exposure with CDDP
Description: as §1, §2, §3, §4

NCI-H2228 = experiment: as above; assay type: cell-based, Human; conditions: 1 h co-exposure with CDDP
Description: as §1, §2, §3, §4

NCI-H1944 = experiment: as above; assay type: cell-based, Human; conditions: 1 h co-exposure with CDDP, shift of subG1 or G2/M dose-response curve
Description: as §1, §2, §3, §4

NCI-H2122 = experiment: as above; assay type: cell-based, Human; conditions: 1 h co-exposure with CDDP, shift of subG1 or G2/M dose-response curve
Description: as §1, §2, §3, §4

[1] = tested on: H1437 Control (Ctrl)-shRNA and Nrf2-shRNA sub-lines; experiment: Cell cycle distribution after CDDP with or without CBP501 in H1437 Ctrl-shRNA and Nrf2-shRNA sub-lines; assay type: cell-based, Human; conditions: one hour treatment with CDDP with or without CBP501
Description: Cell cycle distribution changes are detected by Flow-cytometry (n=4). The graphs at the left are from the sub-line established by introducing Control (Ctrl)-shRNA into the H1437. The graphs at the right are from the sub-line established by indtroducing Nrf2-shRNA into H1437. Upper graphs indicate the subGl population. Lower graphs indicate the G2-M population. An asterisk indicates statistical significance (TTEST; p<0.001). N.S.=not significant (p>0.01).
as §2
Lentivirus infection. […] Lentivirus infection was performed according to manufacturer's instructions.
The effect of Nrf2 knock-down in the CBP501 insensitive cell line H1437 was investigated.

[2] = shift of subG1 or G2/M dose-response curve
[3] = NCI-H838 (Table 2, additional cell lines)

(d-Bpa)(d-Ser)(d-Trp)(d-Ser)(d-Phe-2,3,4,5,6-F)(d-Cha)(d-Arg)(d-Arg)(d-Arg)(d-Gln)(d-Arg)(d-Arg) ([dBpa][dS][dW][dS][dPhe(F5)][dCha][dR][dR][dR][dQ][dR][dR]) [CBP501, anti-cancer drug candidate; calmodulin modulation and G2 checkpoint abrogation]
Interaction with calmodulin (calmodulin): direct interaction | Definition of CBP501 sensitivity (NCI-H2444): Sensitive (Cell lines that shifted the curve two fold or more were classified as CBP501 sensitive cells) | Folds increase of CDDP effect by CBP501 (NCI-H2444; [2]): 2 fold | Folds increase of CDDP effect by CBP501 (NCI-H2172): 1.5 fold | Definition of CBP501 sensitivity (NCI-H2291): Sensitive (Cell lines that shifted the curve two fold or more were classified as CBP501 sensitive cells) | Folds increase of CDDP effect by CBP501 (NCI-H2291; [2]): 2 fold | Definition of CBP501 sensitivity (NCI-H1568): Sensitive (Cell lines that shifted the curve two fold or more were classified as CBP501 sensitive cells) | Folds increase of CDDP effect by CBP501 (NCI-H1568; [2]): 2 fold | Folds increase of CDDP effect by CBP501 (NCI-H838; NCI-H838 (Table 1, initial twelve cell lines)): 4 fold | Definition of CBP501 sensitivity (NCI-H838; [3]): Sensitive (Cell lines that shifted the curve two fold or more were classified as CBP501 sensitive cells) | Folds increase of CDDP effect by CBP501 (NCI-H838; [3]): 2 fold | Folds increase of CDDP effect by CBP501 (NCI-H2030): 1 fold | Definition of CBP501 sensitivity (NCI-H2347): Sensitive (Cell lines that shifted the curve two fold or more were classified as CBP501 sensitive cells) | Folds increase of CDDP effect by CBP501 (NCI-H2347; [2]): 4 fold | Definition of CBP501 sensitivity (NCI-H2228): Insensitive (those that shifted the curve less than two fold were classified as CBP501 insensitive) | Folds increase of CDDP effect by CBP501 (NCI-H2228; [2]): 1.5 fold | Folds increase of CDDP effect by CBP501 (NCI-H1944): 1.5 fold | Folds increase of CDDP effect by CBP501 (NCI-H2122): 1 fold | Effect of CBP501 on CDDP-induced changes in cell cycle distribution (subG1, G2-M) ([1]; H1437 Nrf2 knock-down): increase the effects of CDDP on changes in the cell cycle distribution of subG1 and G2-M; also recorded: increases CBP501 sensitivity | Effect of CBP501 on CDDP-induced changes in cell cycle distribution (subG1, G2-M) ([1]; H1437 control shRNA): no difference in CDDP activity with or without CBP501

From patent publication US20160061841A1, “NRF2-BASED CANCER TREATMENT AND DETECTION METHODS AND USES” (CanBas Co., Ltd., priority 2014, published 2016)
